This passage reports GI50 and TGI results from PubChem BioAssay (NCI).

SMILES strings stand for the structures. Several values for one entry are separate records, joined by “and”; a condition that tells them apart may be missing. Equal values may be shown once.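 Interpolation was linear, between the two tested concentrations surrounding the appropriate level; five concentrations were tested over 48 hours in 96-well plates. Here, GI50 denotes the concentration required for 50% inhibition of growth. The concentration for full growth arrest is given as TGI.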

Some test systems named below: A549 NSCLC; OVCAR-3 ovarian; HOP-62 NSCLC; NCI/ADR-RES ovarian; A498 renal; EKVX NSCLC; BT-549 breast; OVCAR-4 ovarian; LOX IMVI melanoma; HCC-2998 colon.
Assay in all cases: inhibition of tumour cell growth, NCI panel, 48 h

For the molecule `Oc1ccccc1-c1nn(CNc2cccc(Cl)c2)c(=S)o1`, the GI50 in the test on A549 NSCLC is 74.8 µM; in the test on OVCAR-3 ovarian, 30.4 µM; in the test with HOP-62 NSCLC, 90.8 µM; in the test with NCI/ADR-RES ovarian, 0.371 µM; in the test on A498 renal, 60.1 µM; with EKVX NSCLC, 67.2 µM. Besides, the GI50 in the test with BT-549 breast was 94.4 µM. Further, the TGI with A549 NSCLC was greater than 100 µM; in the test with OVCAR-3 ovarian, greater than 100 µM; with HOP-62 NSCLC, greater than 100 µM; in the test on NCI/ADR-RES ovarian it was 40 µM; with A498 renal it was greater than 100 µM; in the test on EKVX NSCLC, greater than 100 µM. Further, the TGI in the test with BT-549 breast is greater than 100 µM.
`COc1cc(O)c2c(O)c3c(c4c2c1[C@]1(C4)C(C)=CCCC1(C)C)[C@H](O)[C@@]1(O)CC(=O)C(C(N)=O)=C(O)[C@@]1(O)C3=O`: the TGI was found to be 1.38 µM with A549 NSCLC; 1.38 µM in the test with OVCAR-3 ovarian; 1.51 µM in the test with HOP-62 NSCLC; 1.5 µM in the test on NCI/ADR-RES ovarian; 1.39 µM in the test with OVCAR-4 ovarian; 1.71 µM in the test on LOX IMVI melanoma. The TGI in the test with A498 renal was determined as 0.743 µM; in the test with EKVX NSCLC it was 1.06 µM; with BT-549 breast it was 1.54 µM.
In the case of `Cn1c2ccccc2c(=S)c2ccccc21`, the TGI in the test with A549 NSCLC, in the test on OVCAR-3 ovarian, with HOP-62 NSCLC, in the test with HCC-2998 colon, in the test with NCI/ADR-RES ovarian and in the test on LOX IMVI melanoma was greater than 100 µM throughout. The TGI with A498 renal, in the test on EKVX NSCLC and in the test with BT-549 breast was greater than 100 µM in each case.
Turning to `CC1=CC(=NC(=O)CBr)C=C/C1=N\S(=O)(=O)c1ccccc1`, the GI50 in the test on A549 NSCLC is 13.9 µM; in the test on OVCAR-3 ovarian it was 2.04 µM; with HOP-62 NSCLC, 11.9 µM; in the test on HCC-2998 colon, 16.5 µM; in the test with NCI/ADR-RES ovarian, 3.38 µM; in the test on OVCAR-4 ovarian it was 2.61 µM. Further, the GI50 with LOX IMVI melanoma is 1.68 µM; in the test with A498 renal, 14.3 µM; in the test on BT-549 breast, 3.15 µM. Besides, the TGI with A549 NSCLC was determined as 34.8 µM; with OVCAR-3 ovarian, 4.47 µM; in the test on HOP-62 NSCLC, 25.1 µM; in the test with HCC-2998 colon it was 31.3 µM; in the test on NCI/ADR-RES ovarian, 14 µM; in the test on OVCAR-4 ovarian, 13.2 µM. For the same molecule, the TGI with LOX IMVI melanoma was determined as 3.24 µM; in the test on A498 renal, 28.2 µM; in the test on BT-549 breast it was 10.6 µM.
For the molecule `Cn1cc(C2=C(c3cccc4ccccc34)C(=O)NC2=O)c2ccccc21`, the GI50 with A549 NSCLC was 7.63 µM; in the test with OVCAR-3 ovarian, 6.06 µM; in the test with HOP-62 NSCLC, 18.5 µM; with HCC-2998 colon it was 12.2 µM; with NCI/ADR-RES ovarian, 9.59 µM; in the test on OVCAR-4 ovarian, 7.21 µM. Besides, the GI50 in the test on LOX IMVI melanoma was 6.96 µM; with A498 renal, 6.76 µM; with BT-549 breast it was 7.49 µM. Besides, the TGI with A549 NSCLC is greater than 25 µM; in the test with OVCAR-3 ovarian it was 14.4 µM; with HOP-62 NSCLC, greater than 25 µM; with HCC-2998 colon, greater than 25 µM; in the test on NCI/ADR-RES ovarian, greater than 25 µM; in the test with OVCAR-4 ovarian, greater than 23.8 µM. Also, the TGI was greater than 25 µM with LOX IMVI melanoma, 22.5 µM with A498 renal and 19.7 µM in the test with BT-549 breast.
As for `O=C1NN(c2ccc(C(=O)O)cc2)C(=O)/C1=C\c1ccc([N+](=O)[O-])o1`, the GI50 was greater than 100 µM in the test on A549 NSCLC; 20.9 µM in the test on OVCAR-3 ovarian; greater than 100 µM with HOP-62 NSCLC; greater than 100 µM with HCC-2998 colon; 89.3 µM in the test on NCI/ADR-RES ovarian; 11.1 µM in the test on LOX IMVI melanoma. Besides, the GI50 with A498 renal, in the test with EKVX NSCLC and with BT-549 breast was greater than 100 µM in each case. Besides, the TGI is greater than 100 µM with A549 NSCLC; 42.3 µM in the test with OVCAR-3 ovarian; greater than 100 µM in the test on HOP-62 NSCLC; greater than 100 µM in the test on HCC-2998 colon; greater than 100 µM with NCI/ADR-RES ovarian; 31.2 µM in the test with LOX IMVI melanoma. Besides, the TGI in the test on A498 renal, in the test on EKVX NSCLC and in the test on BT-549 breast was greater than 100 µM in each case.
In the case of `O=c1cc(-c2cccc(C(F)(F)F)c2)[nH]c2cc3c(cc12)OCO3`, the GI50 was 0.521 µM in the test with A549 NSCLC; 0.517 µM with HOP-62 NSCLC; 0.493 µM with HCC-2998 colon; 0.251 µM in the test on NCI/ADR-RES ovarian; 1.47 µM with A498 renal; 0.359 µM with BT-549 breast. Moreover, the TGI in the test with A549 NSCLC is 50 µM; with HOP-62 NSCLC it was 16.8 µM and 22.5 µM; in the test with NCI/ADR-RES ovarian, 2.14 µM and 0.829 µM; with A498 renal, 49.9 µM and 7 µM; in the test on EKVX NSCLC, 50 µM; in the test with BT-549 breast, 50 µM and > 100 µM.
On to `CC1=NN(c2ccccc2)C(=O)C1N=Nc1ccc([As](=O)(O)O)c(O)c1` (stereo not given), for which the TGI with A549 NSCLC, in the test on OVCAR-3 ovarian, with HOP-62 NSCLC, with NCI/ADR-RES ovarian, in the test on OVCAR-4 ovarian and in the test with LOX IMVI melanoma was greater than 100 µM each time. In addition, the TGI in the test on A498 renal, in the test with EKVX NSCLC and in the test on BT-549 breast was greater than 100 µM throughout.
Consider `CC1CC2(C)ON=C(c3ccccc3)N2c2ccccc2S1` (stereo not given), for which the GI50 in the test with A549 NSCLC is 34.3 µM; in the test on OVCAR-3 ovarian, 94.1 µM; in the test with HOP-62 NSCLC, 56.7 µM; with NCI/ADR-RES ovarian, 17.6 µM; in the test on OVCAR-4 ovarian, 88 µM; with LOX IMVI melanoma it was 22 µM. Moreover, the GI50 was 34.7 µM in the test with A498 renal, 29.4 µM with EKVX NSCLC and 24.8 µM in the test with BT-549 breast. In addition, the TGI with NCI/ADR-RES ovarian came out at 46.6 µM; in the test with LOX IMVI melanoma, 50.1 µM; in the test with BT-549 breast it was 67.4 µM.
For the molecule `COc1ccc2nc(-c3cc(-c4cc(OC)c(OC)c(OC)c4)n[nH]3)[nH]c2c1`, the GI50 with A549 NSCLC is 1.63 µM; with OVCAR-3 ovarian, 2.05 µM; in the test on HOP-62 NSCLC, 2.02 µM; with HCC-2998 colon, 3.03 µM; in the test with NCI/ADR-RES ovarian it was 2.91 µM; in the test with OVCAR-4 ovarian it was 1.24 µM. For the same molecule, the GI50 with A498 renal was 2.23 µM; in the test on BT-549 breast it was 0.899 µM. Further, the TGI with A549 NSCLC is 5.25 µM; in the test on OVCAR-3 ovarian, 6.18 µM; in the test with HOP-62 NSCLC, 5.77 µM; in the test with HCC-2998 colon it was 10.6 µM; with NCI/ADR-RES ovarian, greater than 100 µM; with OVCAR-4 ovarian it was 4.81 µM. The TGI was determined as 10.2 µM with A498 renal and 3.31 µM in the test on BT-549 breast.
